Consider 1 compound from patent US11292773B2, “Small molecule inhibitors of BCL-2-associated death promoter (BAD) phosphorylation” (NATIONAL UNIVERSITY OF SINGAPORE, priority 2017, dated 2022).

One series relates to MCF7 cells. Nature of the series: AlamarBlue cell viability assay. The series is classed as cell-based. Conditions: Homo sapiens, read-out: IC50 (antiproliferative). From the text:
We initially investigated the effect of newly synthesized small molecule compounds against MCF7 cells (ER+ MC cells) using an AlamarBlue® cell viability assay. Among the series of novel small molecule compounds, NPB was identified as an efficacious small molecule compound reducing viability of MCF7 cells compared to vehicle (DMSO) treated cells. […] We next determined the inhibitory concentration 50% (IC50) of NPB in wide-range of carcinoma cell lines including those derived from ER− mammary (BT549, MDA-MB-231), ER+ mammary (MCF7, T47D, and BT474), endometrial (Ishikawa, ECC-1, RL95-2, and AN3), ovarian (SK-OV-3, OVCAR-2, Caov-3, HEY C2, and OVCA433), hepatocellular (Hep3B, H2P, and H2M), colon (HCT116, DLD-1, and Caco-2), prostate (PC3, LNCaP, and DU145) and pancreatic (AsPC-1, BxPC-3) carcinoma. As normal cell controls, we also included immortalized mammary epithelial cells (MCF10A and MCF12A), and immortalized hepatocytes (LO2) in the panel of cell lines.
For orientation: Alamar Blue is a resazurin reagent that responds to reducing activity.

Series [1] deals with T1, hBAD phosphorylation (Ser75, Ser99) (Homo sapiens, UniProt Q92934).
T1 construct: endogenous in cells; host or cells: MCF7 (A6); 25 carcinoma cell lines of seven cancer types (A7)
T1 sequence (Q92934 1-168): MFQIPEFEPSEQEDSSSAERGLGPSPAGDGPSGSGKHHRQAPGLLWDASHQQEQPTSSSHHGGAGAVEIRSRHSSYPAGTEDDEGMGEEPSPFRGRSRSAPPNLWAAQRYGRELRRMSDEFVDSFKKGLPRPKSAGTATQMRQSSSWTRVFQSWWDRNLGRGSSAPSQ
Nature of the series: Western blot of hBAD Ser75 and Ser99 phosphorylation in 25 carcinoma cell lines. It counts as cell-based. Conditions: all tested carcinoma cell lines, NPB 5 μM. As to the method:
(A) WB analysis was used to assess the levels of phosphorylated human BAD (at Ser75 and Ser99) and BAD protein in the range of carcinoma cell lines, including mammary, ovarian, pancreatic, endometrial, hepatocellular, colon and prostate cancer after treatment with NPB (5 μM). Total BAD was used as an input control for cell lysate. (B) WB analysis was used to assess the levels of pBAD (Ser99) and pAKT (Ser473), AKT and BAD in MCF7, Caov-3, Ishikawa, and AsPC-1 cells. 5 μM each of AKT inhibitor (IV) and NPB was used to treat cells. Depletion of AKT expression was achieved using transient-transfection of short hairpin (sh)-RNA (1&2) directed to AKT transcript as described in methodology. β-ACTIN was used as an input control for cell lysate. For WB analysis, soluble whole cell extracts were run on an SDS-PAGE and immunoblotted as described in materials methodology. The sizes of detected protein bands in kDa are shown on the left side. Note: #; non-transformed immortalized-cell line.
We next analyzed the effect of NPB on phosphorylation of hBAD at both Ser75 and Ser99 by western blot analysis in 25 carcinoma cell lines derived seven different types of cancer.
A general note: Immunoblotting shows a protein as a band on a membrane.

The next series concerns MCF7 xenograft. Put plainly: MCF7 xenograft in BALB/c-nu female mice. The series is classed as in vivo. The procedure:
(A) Measurement of tumour volume in BALB/c-nu female mice as described in materials and methods. Animals (n=5 each group) were treated with vehicle, 5 mg/kg NPB or 20 mg/kg NPB, and relative tumour burden was recorded. Animal weight was measured daily for the duration of the experiment. (B) Tumours were excised after the NPB treatment regime and weighed. Representative resected tumours are shown in the right side. (C) WB of tumour tissue to determine levels of p-BAD (Ser99) and BAD. Soluble whole cell extracts were run on an SDS-PAGE and immunoblotted as described in methodology. β-ACTIN was used as an input control. The sizes of detected protein bands in kDa are shown on the left side. (D) Histological analyses of phospho-BAD, BAD, Ki67 and TUNEL staining. […] Apoptotic DNA fragmentation was detected using TUNEL Apoptosis Detection Kit (Gen Script USA Inc.) as described in methodology. Statistical significance was assessed by an unpaired two-tailed Student's t-test (P<0.05 was considered as significant) using GraphPad Prism5. The point represents mean of triplicate experiments; bars, ±SD. **P<0.001, *P<0.05.
5- to 6-week-old BALB/c-nu female mice were subcutaneously implanted with 17β-estradiol pellets (Innovative Research of America) at 0.72 mg/pellet with a 60-day release in the scruff of the neck after three days mice were injected subcutaneously with 100 μl of cell suspension (1×10^7 cells) in right flanks. Tumour growth was monitored by measuring the tumour size using callipers. About 12 days after implantation, mice were randomized and divided into three groups (each group, n=8), according to treatments administered 200 μl of NPB (dissolved in 5% DMSO, 50% PEG400 and 45% water pH 5.0) by intraperitoneal injection every day for seven days. The first group of mice was treated with vehicle, the second with 5 mg/kg dose of NPB, and the third with 20 mg/kg dose of NPB. Animal weight and tumour volumes were measured daily. After completion tumours were excised, photographed, weighed, and fixed or stored in liquid nitrogen for later analysis. Histological analysis was performed as previously described (30-32).
We examined the in vivo efficacy of NPB in a xenograft (MCF7) of MC. Randomly grouped mice with preformed tumours (volume ˜[…]) were injected intraperitoneally with vehicle or NPB at 5 mg/kg or 20 mg/kg. […] However, the tumour weight of NPB-treated animals was reduced compared to vehicle-treated mice and in a dose-dependent manner (FIG. 17B). We further analysed the effect of NPB on hBAD Ser99 phosphorylation levels in tumour tissue using WB analysis (FIG. 17C).

Series [2] relates to various kinases in MCF7 cells. Put plainly: Human Phospho-Kinase Antibody Array. The series is classed as cell-based. To be noted: NPB 10 μM, 12 h, vs DMSO. The procedure:
(A) Western blot analysis was used to assess the level of BAD Ser99 phosphorylation of pBAD, BAD, pAKT, and AKT in MCF7 cells after an increasing period of treatment with NPB (10 μM). Soluble whole cell extracts were run on an SDS-PAGE and immunoblotted as described in methodology. The sizes of detected protein bands in kDa are shown on the left side. (B) Kinases and phosphorylated substrates were detected using a Western Blot array (Proteome Profiler Human Phospho-Kinase Array Kit. MCF7 cells treated with NPB (10 μM) or DMSO for 12 h at 37° C. before preparation of cell lysate. Mean pixel density was analysed using ImageJ software and is represented below.
To elucidate the possibility that NPB decreased hBAD Ser99 phosphorylation by modulation of kinase activity, we assessed the effects of NPB on various kinases using Human Phospho-Kinase Antibody Array Kit from R&D Systems.

The mark [3] stands for this setting: 5 mg/kg or 20 mg/kg intraperitoneal, daily for seven days, vs vehicle.
Where [4] appears, read: histological analysis, vs vehicle.
Setting [5] is: tumour tissue, western blot, vs control.

In general, IC50 refers to the midpoint of a concentration-inhibition curve.

`O=C(NC1CCCC1)c1cccc(C(c2ccccc2O)N2CCN(c3cccc(Cl)c3Cl)CC2)c1` (stereo not drawn) [NPB, N-cyclopentyl-3-((4-(2,3-dichlorophenyl)piperazin-1-yl)(2-hydroxyphenyl)methyl) benzamide]: in the series with MCF7 cells, the IC50 is 6.5 µM. Moreover, in series [1], the “phosphorylation of BAD at the Ser99 site” value is “largely inhibits” and the “phosphorylation of hBAD at the Ser75 site” value is recorded as “no effect”. Further, in the series with MCF7 xenograft (setting [3]), the animal weight entry is “not significantly different” and the tumour volume entry is listed as “significant reduction”. The tumour weight entry in the series with MCF7 xenograft (5 mg/kg or 20 mg/kg intraperitoneal, dose-dependent, vs vehicle) is given as “reduced”. Besides, in the series on MCF7 xenograft (setting [4]), the “TUNEL positivity in tumours” value is on record as “significantly increased”, the “p-BAD (Ser99) in tumour specimens (histology)” value is reported as “significantly reduced” and the “percentage of Ki67 positive cells in tumours” value is “significantly decreased”. In addition, in the series on MCF7 xenograft (setting [5]), the “phosphorylation of BAD (at Ser99) in tumour tissue (WB)” value is listed as “significantly inhibited” and the “total levels of BAD protein in tumours (WB)” value was “No change”. Moreover, the “kinase activity or phosphorylated substrates” value in series [2] is “No significant changes”.
